In patent publication US9724355B2, “Fulvestrant compositions and methods of use” (SHIMODA BIOTECH (PTY) LTD, priority 2010, dated 2017):

Test: Fulvestrant aqueous solubility in the presence and absence of cyclodextrins (excess drug, shaken 24 h, filtered, HPLC)
Type: physicochemical
Conditions: for True Fulvestrant Concentration: 22° C., 24 h; for Average Concentration / Quantity of Fulvestrant Diluted Run 1 / Quantity of Fulvestrant Diluted Run 2: diluted sample
Procedure: The HPLC system used for the chromatographic determination of fulvestrant consisted of a Waters 600E quaternary gradient pump, a Waters 717plus WISP auto-sampler and a Waters 2487 Dual A, Absorbance detector. Separation was performed using a Phenomenex Luna C18 column (250×4.6 mm; 5 urn) (Phenomenex, Torrance, Calif.) (supplied by Separations, South Africa) and a mobile phase consisting of 50% MeCN:22.5% ddH2O :27.5% MeOH. The mobile phase was degassed and filtered prior to use. […] Sample run times were 15 minutes. The UV detector wavelength was set to 280 nm.
(§1) 1 mL of each of the following aqueous solutions was prepared containing 0; 25; 50; 75 and 100 mg/mL ACD in ddHiO. Excess fulvestrant was added to each of these solutions and the samples were shaken for 24 hours on an orbital shaker at 200 rpm and at 22° C. room temperature. Excess fulvestrant was present in all samples at all times. After 24-hours, the samples were filtered through 0.45 μm syringe tip filters, diluted according to requirements and assayed by HPLC.
as §1, with “5; 7.5; 10” for “25; 50; 75”, “15” for “100”, “BCD” for “ACD”, “ddH2O.” for “ddHiO.”
as §1, with “0;” for “0; 25;”, “100; 150; 200; 250; 300; 350” for “75”, “400” for “100”, “MBCD” for “ACD”, “ddH2O.” for “ddHiO.”
as §1, with “0;” for “0; 25;”, “100; 150; 200; 250; 300; 350” for “75”, “400” for “100”, “HPBCD” for “ACD”, “ddH2O.” for “ddHiO.”
as §1, with “0;” for “0; 25;”, “100; 150; 200; 250; 300; 350” for “75”, “400” for “100”, “SBEBCD” for “ACD”, “ddH2O.” for “ddHiO.”
as §1, with “0;” for “0; 25;”, “100; 150;” for “75”, “200” for “100”, “GCD” for “ACD”, “ddHO.” for “ddHiO.”
as §1, with “0;” for “0; 25;”, “100; 150; 200; 250; 300; 350” for “75”, “400” for “100”, “HPGCD” for “ACD”, “ddH2O.” for “ddHiO.”

## C[C@]12CC[C@@H]3c4ccc(O)cc4C[C@@H](CCCCCCCCC[S+]([O-])CCCC(F)(F)C(F)(F)F)[C@H]3[C@@H]1CC[C@@H]2O (stereo partly drawn) [Fulvestrant, 7-alpha-[9-(4,4,5,5,5-pentafluoropentylsulphinyl)nonyl]estra-1,3,5-(10)-triene-3,17-beta-diol]
0 mg/mL ACD in ddH2O
  True Fulvestrant Concentration: <0.010 mg/mL
0 mg/mL ACD
  Average Concentration: <10.00 µg/mL
  Quantity of Fulvestrant Diluted Run 1: <10.000 µg/mL
  Quantity of Fulvestrant Diluted Run 2: <10.010 µg/mL
0 mg/mL BCD in ddH2O
  True Fulvestrant Concentration: <0.010 mg/mL
0 mg/mL BCD
  Average Concentration: <10.00 µg/mL
  Quantity of Fulvestrant Diluted Run 1: <10.000 µg/mL
  Quantity of Fulvestrant Diluted Run 2: <10.000 µg/mL
0 mg/mL GCD in ddH2O
  True Fulvestrant Concentration: <0.010 mg/mL
0 mg/mL GCD
  Average Concentration: <10.00 µg/mL
  Quantity of Fulvestrant Diluted Run 1: <10.000 µg/mL
  Quantity of Fulvestrant Diluted Run 2: <10.000 µg/mL
0 mg/mL HPBCD in ddH2O
  True Fulvestrant Concentration: <0.010 mg/mL
0 mg/mL HPBCD
  Average Concentration: <10.00 µg/mL
  Quantity of Fulvestrant Diluted Run 1: <10.00 µg/mL
  Quantity of Fulvestrant Diluted Run 2: <10.00 µg/mL
0 mg/mL HPGCD in ddH2O
  True Fulvestrant Concentration: <0.010 mg/mL
0 mg/mL HPGCD
  Average Concentration: <10.00 µg/mL
  Quantity of Fulvestrant Diluted Run 1: <10.00 µg/mL
  Quantity of Fulvestrant Diluted Run 2: <10.00 µg/mL
0 mg/mL MBCD in ddH2O
  True Fulvestrant Concentration: <0.010 mg/mL
0 mg/mL MBCD
  Average Concentration: <10.00 µg/mL
  Quantity of Fulvestrant Diluted Run 1: <10.00 µg/mL
  Quantity of Fulvestrant Diluted Run 2: <10.00 µg/mL
0 mg/mL SBEBCD
  Average Concentration: <10.00 µg/mL
  Quantity of Fulvestrant Diluted Run 1: <10.00 µg/mL
  Quantity of Fulvestrant Diluted Run 2: <10.00 µg/mL
5 mg/mL BCD in ddH2O
  True Fulvestrant Concentration: <0.010 mg/mL
5 mg/mL BCD
  Average Concentration: <10.00 µg/mL
  Quantity of Fulvestrant Diluted Run 1: <10.000 µg/mL
  Quantity of Fulvestrant Diluted Run 2: <10.000 µg/mL
10 mg/mL BCD in ddH2O
  True Fulvestrant Concentration: <0.010 mg/mL
10 mg/mL BCD
  Average Concentration: <10.00 µg/mL
  Quantity of Fulvestrant Diluted Run 1: <10.000 µg/mL
  Quantity of Fulvestrant Diluted Run 2: <10.000 µg/mL
15 mg/mL BCD in ddH2O
  True Fulvestrant Concentration: 0.013 mg/mL
15 mg/mL BCD
  Average Concentration: 13.00 µg/mL
  Quantity of Fulvestrant Diluted Run 1: 13.060 µg/mL
  Quantity of Fulvestrant Diluted Run 2: 12.940 µg/mL
25 mg/mL ACD in ddH2O
  True Fulvestrant Concentration: 0.033 mg/mL
25 mg/mL ACD
  Average Concentration: 33.30 µg/mL
  Quantity of Fulvestrant Diluted Run 1: 33.620 µg/mL
  Quantity of Fulvestrant Diluted Run 2: 32.970 µg/mL
50 mg/mL ACD in ddH2O
  True Fulvestrant Concentration: 0.111 mg/mL
50 mg/mL ACD
  Average Concentration: 110.74 µg/mL
  Quantity of Fulvestrant Diluted Run 1: 110.600 µg/mL
  Quantity of Fulvestrant Diluted Run 2: 110.880 µg/mL
50 mg/mL GCD in ddH2O
  True Fulvestrant Concentration: 0.011 mg/mL
50 mg/mL GCD
  Average Concentration: 10.62 µg/mL
  Quantity of Fulvestrant Diluted Run 1: 10.700 µg/mL
  Quantity of Fulvestrant Diluted Run 2: 10.530 µg/mL
50 mg/mL HPBCD in ddH2O
  True Fulvestrant Concentration: 0.210 mg/mL
50 mg/mL HPBCD
  Average Concentration: 20.95 µg/mL
  Quantity of Fulvestrant Diluted Run 1: 21.09 µg/mL
  Quantity of Fulvestrant Diluted Run 2: 20.81 µg/mL
50 mg/mL HPGCD in ddH2O
  True Fulvestrant Concentration: 0.037 mg/mL
50 mg/mL HPGCD
  Average Concentration: 38.32 µg/mL
  Quantity of Fulvestrant Diluted Run 1: 38.66 µg/mL
  Quantity of Fulvestrant Diluted Run 2: 37.97 µg/mL
50 mg/mL MBCD in ddH2O
  True Fulvestrant Concentration: 0.750 mg/mL
50 mg/mL MBCD
  Average Concentration: 74.99 µg/mL
  Quantity of Fulvestrant Diluted Run 1: 74.61 µg/mL
  Quantity of Fulvestrant Diluted Run 2: 75.37 µg/mL
50 mg/mL SBEBCD in ddH2O
  True Fulvestrant Concentration: 0.077 mg/mL
50 mg/mL SBEBCD
  Average Concentration: 77.30 µg/mL
  Quantity of Fulvestrant Diluted Run 1: 76.98 µg/mL
  Quantity of Fulvestrant Diluted Run 2: 77.61 µg/mL
75 mg/mL ACD in ddH2O
  True Fulvestrant Concentration: 0.310 mg/mL
75 mg/mL ACD
  Average Concentration: 310.32 µg/mL
  Quantity of Fulvestrant Diluted Run 1: 310.460 µg/mL
  Quantity of Fulvestrant Diluted Run 2: 310.170 µg/mL
100 mg/mL ACD in ddH2O
  True Fulvestrant Concentration: 1.683 mg/mL
100 mg/mL ACD
  Average Concentration: 168.26 µg/mL
  Quantity of Fulvestrant Diluted Run 1: 162.660 µg/mL
  Quantity of Fulvestrant Diluted Run 2: 173.850 µg/mL
100 mg/mL GCD in ddH2O
  True Fulvestrant Concentration: <0.010 mg/mL
100 mg/mL GCD
  Average Concentration: <10.00 µg/mL
  Quantity of Fulvestrant Diluted Run 1: <10.000 µg/mL
  Quantity of Fulvestrant Diluted Run 2: <10.000 µg/mL
100 mg/mL HPBCD in ddH2O
  True Fulvestrant Concentration: 0.483 mg/mL
100 mg/mL HPBCD
  Average Concentration: 48.30 µg/mL
  Quantity of Fulvestrant Diluted Run 1: 48.32 µg/mL
  Quantity of Fulvestrant Diluted Run 2: 48.27 µg/mL
100 mg/mL HPGCD in ddH2O
  True Fulvestrant Concentration: 0.107 mg/mL
100 mg/mL HPGCD
  Average Concentration: 116.27 µg/mL
  Quantity of Fulvestrant Diluted Run 1: 116.80 µg/mL
  Quantity of Fulvestrant Diluted Run 2: 115.74 µg/mL
100 mg/mL MBCD in ddH2O
  True Fulvestrant Concentration: 3.021 mg/mL
100 mg/mL MBCD
  Average Concentration: 302.06 µg/mL
  Quantity of Fulvestrant Diluted Run 1: 302.12 µg/mL
  Quantity of Fulvestrant Diluted Run 2: 301.99 µg/mL
100 mg/mL SBEBCD in ddH2O
  True Fulvestrant Concentration: 0.167 mg/mL
100 mg/mL SBEBCD
  Average Concentration: 167.10 µg/mL
  Quantity of Fulvestrant Diluted Run 1: 167.7 µg/mL
  Quantity of Fulvestrant Diluted Run 2: 166.49 µg/mL
150 mg/mL GCD in ddH2O
  True Fulvestrant Concentration: <0.010 mg/mL
150 mg/mL GCD
  Average Concentration: <10.00 µg/mL
  Quantity of Fulvestrant Diluted Run 1: <10.000 µg/mL
  Quantity of Fulvestrant Diluted Run 2: <10.000 µg/mL
150 mg/mL HPBCD in ddH2O
  True Fulvestrant Concentration: 0.937 mg/mL
150 mg/mL HPBCD
  Average Concentration: 93.66 µg/mL
  Quantity of Fulvestrant Diluted Run 1: 93.82 µg/mL
